Experiments:
AChE = target: T1, AChE (Rattus norvegicus, UniProt P37136); test: AChE kinetic study (Lineweaver-Burk and Dixon plots); assay type: biochemical
T1 construct: AChE was derived from the SD rat brains by homogenizing the brain with 20-fold saline solution; from tissue; host or cells: SD rat brain homogenate (supernatant after 800 x g)
Experimental: (§1) To have an insight into how structure modification affected the inhibitory activities, molecular docking and kinetics studies were performed for DL0410, compounds 6-1 and 7-6. After the docking parameters were set, the crystal poses of donepezil and N-((1-benzylpiperidin-3-yl)methyl)-N-(2-methoxyethyl) naphthalene-2-sulfonamide were first re-docked into the binding site pocket of AChE and BuChE, respectively. Donepezil is a mixed-type inhibitor of AChE used in the palliative treatment of AD [25]. N-((1-benzylpiperidin-3-yl)methyl)-N-(2-methoxyethyl) naphthalene-2-sulfonamide is a potent, selective, and reversible human BuChE inhibitor, which can improve memory, cognitive functions, and learning abilities. The root mean square deviation (RMSD) values between the docking and initial poses were 0.872 and 1.253, respectively, which implied that the docking models built by CDOCKER could reproduce the crystal binding model and were suitable for the AChE and BuChE system. DL0410 and two highly inhibitory compounds (compounds 6-1 and 7-6) were docked to the active pockets of AChE and BuChE. For AChE, these three compounds could dock to TRP86 of CAS via π-Alkyl interaction or electrostatic attraction, near the bottom of the active site gorge, and TRP286 of PAS via π-π stacking interaction, near its entrance (Figure 4). The value of –CDOCKER INTERACTION ENERGY was followed by compound 6-1 > compound 7-6 > DL0410. The dibenzofuran of compound 6-1 formed stronger π-π stacking interaction with TYR341 and TRP286, and the carbonyl formed hydrogen bond with TYR72. In addition, hydrogen bond interaction of compound 7-6 made it high inhibition for AChE. […] There existed more hydrogen bonds for compound 7-6, and a highly electronegative fluorine atom caused its strong interaction with GLY116. Therefore, the fluorine atom substitution and the structure of dibenzofuran made compounds 6-1 and 7-6 different from DL0410. Compound 7-6 formed more hydrogen bonds with AChE and BuChE. The structure of dibenzofuran caused the extension direction of compound 6-1 to change, which was more conducive to forming electrostatic attractive interactions. In silico results were consistent with the kinetics studies of AChE and BuChE. […] The inhibition kinetic data were analyzed by Lineweaver-Burk and Dixon plots. The Lineweaver-Burk plot provides a useful means of distinguishing among competitive inhibition, non-competitive inhibition, and mixed inhibition, whereas the merit of the Dixon plot is that one can expediently determine Ki from the kinetic data. […] The results of the kinetics studies also validated that the three compounds were, indeed, capable of binding to CAS and PAS of AChE/BuChE. The PAS site could […] their catalytic efficiency, which led to high inhibitory effects.
(§2) Figure 6 The Lineweaver-Burk plots of DL0410, compound 6-1 and compound 7-6 on AChE inhibitory activity (A–C). The Lineweaver-Burk plots of DL0410, compound 6-1 and compound 7-6 on BuChE inhibitory activity (D–F). Kinetic analysis of AChE and BuChE was performed by using three effective concentrations of DL0410, compound 6-1 and compound 7-6 (0.1, 0.3, 1 μM for AChE, and 0.3, 1, 3 μM for BuChE) with the incubation of five different substrate concentrations (1.25, 2.5, 5, 10, 20 mM for AChE, and 2, 4, 8, 16, 32 mM for BuChE). […] (n = 3; a = mM^−1; b = min/ΔA).
(§3) Figure 7 Ki values were determined by Dixon plots. […] Figure D–F presented the Dixon plots of DL0410, compound 6-1 and compound 7-6 on BuChE inhibitory activity, respectively. […] (n = 3; b = min/ΔA).
(§4) It is important to determinate the type of inhibition in an effort to understand the mechanism of inhibition and the binding sites of the inhibitor sites. […]

BuChE = target: T2, BuChE (Homo sapiens, UniProt P06276); test: BuChE kinetic study (Lineweaver-Burk and Dixon plots); assay type: biochemical
T2 construct: BuChE was obtained from human plasma (purchased from Beijing Red Cross Blood Center China); tissue Beijing Red Cross Blood Center China; host or cells: human plasma, diluted 200-fold with 0.05 M PBS
Experimental: as §1, §2, §3, §4

APPsw-SY5Y cells = conditions: Akt/JNK signaling pathway; cited from earlier work
Aβ-treated mice = system: Aβ-treated mice; parameters: method as in PMID 27498773; conditions: Aβ-treated mice model; cited from earlier work
APP/PS1 transgenic mice = system: APP/PS1 transgenic mice; parameters: method as in PMID 26476132; conditions: cited from earlier work

T2 sequence (P06276 29-602): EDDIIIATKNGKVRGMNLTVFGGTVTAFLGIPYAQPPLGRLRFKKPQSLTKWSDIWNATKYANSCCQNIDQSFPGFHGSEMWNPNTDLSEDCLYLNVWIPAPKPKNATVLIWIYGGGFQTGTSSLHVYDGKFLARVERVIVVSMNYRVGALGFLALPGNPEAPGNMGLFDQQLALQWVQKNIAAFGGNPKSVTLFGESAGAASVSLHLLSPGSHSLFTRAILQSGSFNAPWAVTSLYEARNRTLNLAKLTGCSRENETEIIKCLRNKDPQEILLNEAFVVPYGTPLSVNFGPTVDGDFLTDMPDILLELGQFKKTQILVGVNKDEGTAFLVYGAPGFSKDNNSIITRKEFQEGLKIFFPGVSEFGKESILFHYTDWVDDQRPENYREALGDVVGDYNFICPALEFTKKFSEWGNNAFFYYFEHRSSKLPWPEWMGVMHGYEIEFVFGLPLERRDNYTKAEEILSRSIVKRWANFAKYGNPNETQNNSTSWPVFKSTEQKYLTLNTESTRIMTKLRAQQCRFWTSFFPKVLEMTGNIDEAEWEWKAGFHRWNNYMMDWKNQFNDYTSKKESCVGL
T1 sequence (P37136 32-614): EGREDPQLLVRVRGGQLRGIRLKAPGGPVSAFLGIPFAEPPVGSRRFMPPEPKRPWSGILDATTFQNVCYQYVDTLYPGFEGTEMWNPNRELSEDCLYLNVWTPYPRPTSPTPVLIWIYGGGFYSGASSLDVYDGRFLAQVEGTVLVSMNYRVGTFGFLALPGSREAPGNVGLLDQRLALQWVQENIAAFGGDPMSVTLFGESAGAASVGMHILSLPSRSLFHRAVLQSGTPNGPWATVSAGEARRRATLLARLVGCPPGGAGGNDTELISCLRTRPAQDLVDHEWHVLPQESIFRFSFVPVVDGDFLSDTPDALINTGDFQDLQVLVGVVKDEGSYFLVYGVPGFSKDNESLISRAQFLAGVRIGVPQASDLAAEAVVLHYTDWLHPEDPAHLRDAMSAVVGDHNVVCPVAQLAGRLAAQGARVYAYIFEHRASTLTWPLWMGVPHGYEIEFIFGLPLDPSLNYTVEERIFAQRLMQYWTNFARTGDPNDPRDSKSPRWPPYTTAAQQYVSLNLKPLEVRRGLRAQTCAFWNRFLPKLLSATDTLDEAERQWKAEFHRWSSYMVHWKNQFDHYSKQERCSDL

## O=C(CCN1CCCCC1)c1ccc(-c2ccc(C(=O)CCN3CCCCC3)cc2)cc1 [Compound 1-1]
AChE; Dixon plot, inhibitor 0.1, 0.3, 1 μM, substrate 1.25-20 mM, n = 3
  Ki: 1650 ± 140 nM
AChE; Lineweaver-Burk plot
  type of inhibition of AChE: mixed-type
BuChE; Dixon plot, inhibitor 0.3, 1, 3 μM, five substrate concentrations, n = 3
  Ki: 1810 ± 80 nM
BuChE; Lineweaver-Burk plot
  type of inhibition of BuChE: mixed-type
APPsw-SY5Y cells
  neuronal protection: exerted neuronal protection
Aβ-treated mice
  Aβ deposits in cerebral cortices: reduced Aβ deposits in cerebral cortices
APP/PS1 transgenic mice
  learning and memory dysfunction: improved learning and memory dysfunction
